# Measurements published in patent US20060223792A1, “Phenyl and pyridyl LTA4H modulators” (priority 2005, published 2006).
# Where a name gives a salt, the structure may show the parent alone.
# Target: T1, recombinant human LTA4 hydrolase (rhLTA4H) (Homo sapiens, UniProt P09960)
# T1 construct: made in house; host or cells: Spodoptera frugiperda (Sf-9) cells, baculovirus (pFastBac1)
# T1 sequence (P09960 1-611): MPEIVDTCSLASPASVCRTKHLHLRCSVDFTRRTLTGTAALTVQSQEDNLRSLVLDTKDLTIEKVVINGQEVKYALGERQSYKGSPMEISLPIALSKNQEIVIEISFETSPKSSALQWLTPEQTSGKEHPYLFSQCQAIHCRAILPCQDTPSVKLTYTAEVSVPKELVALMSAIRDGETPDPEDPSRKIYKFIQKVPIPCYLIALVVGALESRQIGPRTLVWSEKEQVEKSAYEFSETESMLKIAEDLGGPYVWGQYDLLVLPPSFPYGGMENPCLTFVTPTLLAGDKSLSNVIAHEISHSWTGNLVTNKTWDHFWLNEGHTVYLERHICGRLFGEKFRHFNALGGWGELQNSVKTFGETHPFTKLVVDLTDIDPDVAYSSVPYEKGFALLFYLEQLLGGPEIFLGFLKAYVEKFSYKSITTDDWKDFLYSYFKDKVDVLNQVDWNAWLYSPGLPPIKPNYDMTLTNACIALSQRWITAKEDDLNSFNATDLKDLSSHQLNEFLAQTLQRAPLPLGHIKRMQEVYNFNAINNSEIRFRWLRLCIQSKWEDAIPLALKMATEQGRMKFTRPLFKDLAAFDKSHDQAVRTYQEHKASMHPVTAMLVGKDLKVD
# Assay: Recombinant human LTA4 hydrolase assay for LTA4 hydrolase inhibitor activity
# Type: biochemical
# Settings: not given
# Protocol: Recombinant Human LTA4 Hydrolase Assay for LTA4 Hydrolase Inhibitor Activity
# Compounds of the present invention were tested for LTA4 hydrolase inhibitor activity against recombinant human LTA4 hydrolase (rhLTA4H). Vectors were prepared and used to express rhLTA4H essentially as follows: LTA4 hydrolase encoding DNA was amplified by polymerase chain reaction (PCR) using a human placental cDNA library as a template. Oligonucleotide primers for the PCR reaction were based on the 5′-end, and the complement of the 3′-end, of the published nucleotide sequence for the coding region of the human LTA4 hydrolase gene (C. D. Funk et al., Proc. Natl. Acad. Sci. USA 1987, 84:6677-6681). The amplified […] DNA fragment encoding LTA4 hydrolase was isolated and cloned into the pFastBac1 vector (Invitrogen). Recombinant baculovirus was generated as described by the manufacturer, and used to infect Spodoptera frugiperda (Sf-9) cells. Recombinant LTA4 hydrolase enzyme was purified from the infected Sf-9 cells essentially as described by J. K. Gierse et al. (Protein Expr. Purif. 1993, 4(5):358-366). The purified enzyme solution was adjusted to contain 0.29 mg/mL LTA4 hydrolase, 50 mM Tris (pH 8.0),150 mM NaCl, 5 mM dithiothreitol, 50% glycerol, and EDTA-free Complete protease inhibitor cocktail (Roche). The specific activity of the enzyme was about 3.8 μmol/min/mg.
# LTA4 substrate was prepared from the methyl ester of LTA4 (Cayman Chemical) by treatment with 67 equiv. of NaOH under nitrogen at rt for 40 min. The LTA4 substrate in its free acid form was kept frozen at −80° C. until needed. Each compound was diluted to different concentrations in assay buffer (0.1 M potassium phosphate (pH 7.4), 5 mg/mL fatty acid free BSA) containing 10% DMSO. A 25-μL aliquot of each compound dilution was incubated for 10 min at rt with an equal volume of assay buffer containing 36 ng of recombinant human LTA4H. The solution was then adjusted to 200 μL with assay buffer. LTA4 (free acid) was thawed and diluted in assay buffer to a concentration of 357 ng/mL, and 25 μL (9 ng) of LTA4 substrate was added to the reaction mixture (total volume=225 μL) at time zero. Each reaction was carried out at rt for 10 min. The reaction was stopped by diluting 10 μL of the reaction mixture with 200 μL of assay buffer. LTB4 was quantifiedin the diluted sample by a commercially available enzyme-linked immunoassay (Cayman Chemical Co.), as recommended by the manufacturer. Positive controls, under essentially identical conditions but without addition of an inhibitor compound, and negative controls, containing all assay components except enzyme, were routinely run in each experiment. IC50 values were determined by fitting the activity data at different compound concentrations to a 4-parameter equation using the Grafit program (Erithacus software).
# The IC50 values presented in the table below should be expected to fall within the typical three-fold variability of assays of this type. The values presented here are, in general, an average of one to three determinations.
row,SMILES,IC50
1,"CCCN(CCCc1ccc(OC(=O)Nc2ccccc2)cc1)CC1CC1 [Example 38, Phenyl-carbamic acid 4-[3-(cyclopropylmethyl-propyl-amino)-propyl]-phenyl ester hydrochloride]",6 nM

# Same assay, conditions: recombinant human LTA4H, LTB4 quantified by enzyme-linked immunoassay; average of one to three determinations; read-out: IC50
row,SMILES,IC50
1,"c1ccc(CCOc2ccc(CCN3CCC(c4nnn[nH]4)CC3)cc2)cc1 [Example 30, 1-[2-(4-Phenethyloxy-phenyl)-ethyl]-4-(1H-tetrazol-5-yl)-piperidine]",27 nM
2,"O=C1CCCN1C1CCN(Cc2ccc(OCCCc3ccccc3)cc2)CC1 [Example 107, 1-{1-[4-(3-Phenyl-propoxy)-benzyl]-piperidin-4-yl}-pyrrolidin-2-one]",5 nM
3,"c1ccc(CCOc2ccc(OCCN3CCCCC3)cc2)cc1 [Example 67, 1-[2-(4-Phenethyloxy-phenoxy)-ethyl]-piperidine]",23 nM
4,"O=C(Nc1ccsc1)Oc1ccc(OCCN2CCCCC2)cc1 [Example 64, Thiophen-3-yl-carbamic acid 4-(2-piperidin-1-yl-ethoxy)-phenyl ester]",3 nM
5,"NC(=O)C1CCN(CCc2ccc(OCCc3ccccc3)cc2)CC1 [Example 79, 1-[2-(4-Phenethyloxy-phenyl)-ethyl]-piperidine-4-carboxylic acid amide]",50 nM
6,"OC1c2ccccc2CC1Oc1ccc(OCCN2CCCCC2)cc1 (stereo not drawn) [Example 125, 2-[4-(2-Piperidin-1-yl-ethoxy)-phenoxy]-indan-1-ol]",192 nM
7,"COC(=O)C1CCN(CCc2ccc(OCCc3ccccc3)cc2)CC1 [Example 77, 1-[2-(4-Phenethyloxy-phenyl)-ethyl]-piperidine-4-carboxylic acid methyl ester]",6 nM
8,"O=C(Nc1ccccc1)Oc1ccc(OCCN2CCC(O)CC2)cc1 [Example 53, Phenyl-carbamic acid 4-[2-(4-hydroxy-piperidin-1-yl)-ethoxy]-phenyl ester]",3 nM
9,"NC(=O)C1CCN(Cc2ccc(OCCc3ccccc3)cc2)CC1 [Example 101, 1-(4-Phenethyloxy-benzyl)-piperidine-4-carboxylic acid amide]",28 nM
10,"O=C(Nc1ccccc1)Oc1ccc(OCCN2CCCCCC2)cc1 [Example 55, Phenyl-carbamic acid 4-(2-azepan-1-yl-ethoxy)-phenyl ester]",0.5 nM
11,"O=C(Nc1ccccc1)Oc1ccc(CCN2CCC(O)CC2)cc1 [Example 58, Phenyl-carbamic acid 4-[2-(4-hydroxy-piperidin-1-yl)-ethyl]-phenyl ester]",2 nM
12,"CN(C)C(=O)Oc1ccc(OCCN2CCC(O)(c3ccccc3)CC2)cc1 [Example 10, Dimethyl-carbamic acid 4-[2-(4-hydroxy-4-phenyl-piperidin-1-yl)-ethoxy]-phenyl ester]",52 nM
13,"O=C(Nc1ccccc1)Oc1ccc(OCCCN2CCC(O)(c3ccccc3)CC2)cc1 [Example 42, Phenyl-carbamic acid 4-[3-(4-hydroxy-4-phenyl-piperidin-1-yl)-propoxy]-phenyl ester]",1 nM
14,"CCOC(=O)CCNCCc1ccc(OCCc2ccccc2)cc1 [Example 84, 3-[2-(4-Phenethyloxy-phenyl)-ethylamino]-propionic acid ethyl ester]",10 nM
15,"O=C(Cc1ccccc1)Oc1ccc(OCCN2CCCCC2)cc1 [Example 21, Phenyl-acetic acid 4-(2-piperidin-1-yl-ethoxy)-phenyl ester]",1 nM
16,"CCOC(=O)C1CCN(Cc2ccc(OCCCc3ccccc3)cc2)CC1 [Example 106, 1-[4-(3-Phenyl-propoxy)-benzyl]-piperidine-4-carboxylic acid ethyl ester]",154 nM
17,"O=C1CCCN1C1CCN(CCOc2ccc(OCCc3ccccc3)cc2)CC1 [Example 82, 1-{1-[2-(4-Phenethyloxy-phenoxy)-ethyl]-piperidin-4-yl}-pyrrolidin-2-one]",6 nM
18,"O=C(Nc1ccccc1)Oc1ccc(OCCN2CCC(O)(c3ccc(Cl)cc3)CC2)cc1 [Example 57, Phenyl-carbamic acid 4-{2-[4-(4-chloro-phenyl)-4-hydroxy-piperidin-1-yl]-ethoxy}-phenyl ester]",0.3 nM
19,"CC(C(=O)Oc1ccc(OCCN2CCCCC2)cc1)c1ccccc1 (stereo not drawn) [Example 22, 2-Phenyl-propionic acid 4-(2-piperidin-1-yl-ethoxy)-phenyl ester]",21 nM
20,"O=C(O)C1CCN(Cc2ccc(OCCc3ccccc3)nc2)CC1 [Example 94, 1-(6-Phenethyloxy-pyridin-3-ylmethyl)-piperidine-4-carboxylic acid]",254 nM
21,"N#CC1CCN(CCc2ccc(OCCc3ccccc3)cc2)CC1 [Example 29, 1-[2-(4-Phenethyloxy-phenyl)-ethyl]-piperidine-4-carbonitrile]",55 nM
22,"O=C(Nc1cccs1)Oc1ccc(OCCN2CCCCC2)cc1 [Example 65, Thiophen-2-yl-carbamic acid 4-(2-piperidin-1-yl-ethoxy)-phenyl ester]",7 nM
23,"O=C(Nc1ccccc1)Oc1ccc(CCN2CCCC2)cc1 [Example 60, Phenyl-carbamic acid 4-(2-pyrrolidin-1-yl-ethyl)-phenyl ester]",4 nM
24,"CCOC(=O)C1CCCCN1C1CCN(CCc2ccc(OCCc3ccccc3)cc2)CC1 (stereo not drawn) [Example 66, 1′-[2-(4-Phenethyloxy-phenyl)-ethyl]-[1,4′]bipiperidinyl-2-carboxylic acid ethyl ester]",88 nM
25,"O=C1NCCC12CCN(Cc1ccc(OCCc3ccccc3)cc1)CC2 [Example 100, 8-(4-Phenethyloxy-benzyl)-2,8-diaza-spiro[4.5]decan-1-one]",121 nM
26,"Fc1ccc(CCOc2ccc(OCCN3CCCCC3)cc2)cc1 [Example 166, 1-(2-{4-[2-(4-Fluoro-phenyl)-ethoxy]-phenoxy}-ethyl)-piperidine]",248 nM
27,"O=C(Oc1ccc(OCCN2CCCCC2)cc1)C(Cl)c1ccccc1 (stereo not drawn) [Example 123, Chloro-phenyl-acetic acid 4-(2-piperidin-1-yl-ethoxy)-phenyl ester]",150 nM

# System: LTB4 production by calcium ionophore-stimulated murine blood
# Assay: LTB4 production by calcium ionophore-stimulated murine blood for LTA4H inhibitor activity
# Type: cell-based, CD-1 mice
# Settings: diluted CD-1 mouse whole blood, calcium ionophore A23187, LTB4 by enzyme-linked immunoassay
# Protocol: LTB4 Production by Calcium Ionophore-Stimulated Murine Blood for LTA4H Inhibitor Activity
# CD-1 mice were sacrificed, and blood was collected in heparin-containing syringes by cardiac puncture. The blood was diluted 1:15 with RPMI-1640 medium, and 200-μL aliquots of the diluted blood were added to wells of a 96-well microtiter plate. LTA4H inhibitor test compounds were prepared at different concentrations in RPMI-1640 medium containing […], and 20 μL of each test solution was added to a well containing diluted whole blood (final DMSO concentration of 0.1%). After the microtiter plate contents were incubated for 15 min at 37° C. in a humidified incubator, calcium ionophore A23187 (Sigma Chemical Co., St. Louis, Mo.) was added to each sample well (final concentration=20 ng/mL). The incubation was continued under the same conditions for an additional 10 min to allow LTB4 formation. The reaction was terminated by centrifugation (833×g, 10 min at 4° C.), and supernatants were analyzed for LTB4 by a commercially available enzyme-linked immunoassay (Cayman Chemical Co.) according to the manufacturer's instructions. Positive controls, under essentially identical conditions but without addition of an inhibitor compound, and negative unstimulated controls, containing all assay components except calcium ionophore, were routinely run in each experiment. IC50 values were determined by fitting the activity data at different compound concentrations to a 4-parameter equation using the Grafit program (Erithacus software).
row,SMILES,IC50
1,"c1ccc(CCOc2ccc(CCN3CCC(c4nnn[nH]4)CC3)cc2)cc1 [Example 30, 1-[2-(4-Phenethyloxy-phenyl)-ethyl]-4-(1H-tetrazol-5-yl)-piperidine]",169 nM
2,"O=C1CCCN1C1CCN(Cc2ccc(OCCCc3ccccc3)cc2)CC1 [Example 107, 1-{1-[4-(3-Phenyl-propoxy)-benzyl]-piperidin-4-yl}-pyrrolidin-2-one]",33 nM
3,"c1ccc(CCOc2ccc(OCCN3CCCCC3)cc2)cc1 [Example 67, 1-[2-(4-Phenethyloxy-phenoxy)-ethyl]-piperidine]",175 nM
4,"O=C(Nc1ccsc1)Oc1ccc(OCCN2CCCCC2)cc1 [Example 64, Thiophen-3-yl-carbamic acid 4-(2-piperidin-1-yl-ethoxy)-phenyl ester]",48 nM
5,"NC(=O)C1CCN(CCc2ccc(OCCc3ccccc3)cc2)CC1 [Example 79, 1-[2-(4-Phenethyloxy-phenyl)-ethyl]-piperidine-4-carboxylic acid amide]",192 nM
